Measured values reported in US12673918B2, “Small molecule RPN13 inhibitors with antitumor properties” (The Johns Hopkins University, priority 2019, dated 2026).

How the values were obtained:
[1] = system: HeLa
[2] = system: SiHa
[3] = system: CaSki
[4] = system: OVCAR3
[5] = system: SKOV3
Procedure: Cell lines and cytotoxicity assays: All cell lines were obtained from the American Type Culture Collection (ATCC) and cultured in the specified medium supplemented with 10% fetal bovine serum, 100 IU/mL penicillin, and 100 μg/mL streptomycin at 37° C. in a humidified 5% CO2/95% air incubator. […] To assess drug cytotoxicity, cells were seeded at 2,500 cells/well (10,000 cells/well for MM lines) in 100 μL medium in 96-well plate and after 24 treated with compounds for 72 h, incubated according to the manufacturer's protocol with the Thiazolyl Blue Tetrazolium Bromide (Sigma, M2128) and A570 measured using a Benchmark Plus microplate spectrophotometer (BIO-RAD). IC50 data was analyzed by Graphpad Prism software.

[6] = system: SKOV3-TR
[7] = system: BR5-FvB1
Procedure: (§1) Cell lines and cytotoxicity assays: All cell lines were obtained from the American Type Culture Collection (ATCC) and cultured in the specified medium supplemented with 10% fetal bovine serum, 100 IU/mL penicillin, and 100 μg/mL streptomycin at 37° C. in a humidified 5% CO2/95% air incubator. […] To assess drug cytotoxicity, cells were seeded at 2,500 cells/well (10,000 cells/well for MM lines) in 100 μL medium in 96-well plate and after 24 treated with compounds for 72 h, incubated according to the manufacturer's protocol with the Thiazolyl Blue Tetrazolium Bromide (Sigma, M2128) and A570 measured using a Benchmark Plus microplate spectrophotometer (BIO-RAD). IC50 data was analyzed by Graphpad Prism software. In the chirality studies the cells were treated with compounds for 48 h, and the cells were incubated and measured via the preceeding protocols.

[8] = system: BR5-Luc
[9] = system: DLD-BRCA2-Ve
Procedure: as §1

[10] = system: DLD-Seckle
Procedure: as §1

[11] = system: RPE1-ATMKO
Procedure: as §1

[12] = system: multiple myeloma; details: cited from earlier work

C=CC(=O)N1CC/C(=C\c2ccc(F)c([N+](=O)[O-])c2)C(=O)/C(=C/c2ccc(F)c([N+](=O)[O-])c2)C1 [VLX1570]
IC50 [1]: 111 nM | IC50 [2]: 54 nM | IC50 [3]: 68 nM | IC50 [4]: 18 nM | IC50 [5]: 128 nM | IC50 [6]: 300 nM | IC50 [7]: 250 nM | IC50 [8]: 4.8 nM | IC50 [9]: 8540 nM | IC50 [10]: 964 nM | IC50 [11]: 963 nM | dose at which anti-myeloma effects were observed ([12]; phase I patients (70)): ≥ 0.6 mg/kg | adverse events ([12]; two patients at the 1.2 mg/kg dose level (70)): severe, abrupt, and progressive respiratory insufficiency, culminating in death
